# Reference: ChEMBL document CHEMBL1201862, “PubChem BioAssay data set” (2004)
#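 A five-concentration, 48-hour dose response in 96-well plates underlies each endpoint, interpolated linearly between surrounding concentrations. GI50 = concentration required for 50% inhibition of growth.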 Active and inactive are the calls of the source. Rule as the data show it: active = GI50 up to about 1.1 µM and inactive = higher.
# Tests used:
# Experiment in all cases: DTP human tumour cell line panel, 48 h
# SK-OV-3 = system: SK-OV-3
# KM12 = system: KM12
# T47D = system: T47D
# BT-549 = system: BT-549
# SN12C = system: SN12C
# SNB-19 = system: SNB-19
# EKVX = system: EKVX
# A498 = system: A498
# TK-10 = system: TK-10
# Hs-578T = system: Hs-578T
# MDA-MB-435 = system: MDA-MB-435
# SK-MEL-5 = system: SK-MEL-5
# K562 = system: K562
# CAKI-1 = system: CAKI-1
# HOP-92 = system: HOP-92
# MDA-N = system: MDA-N
# UO-31 = system: UO-31
# ACHN = system: ACHN
# IGROV-1 = system: IGROV-1
# NCI-H460 = system: NCI-H460
# HCT-15 = system: HCT-15
# Malme-3M = system: Malme-3M
# A549 = system: A549
# HT-29 = system: HT-29
# UACC-257 = system: UACC-257
# LOX IMVI = system: LOX IMVI
# MCF7 = system: MCF7
# HOP-62 = system: HOP-62
# SNB-75 = system: SNB-75
# OVCAR-8 = system: OVCAR-8
# SF-295 = system: SF-295
# SF-268 = system: SF-268
# MDA-MB-231 = system: MDA-MB-231
# PC-3 = system: PC-3
# NCI/ADR-RES = system: NCI/ADR-RES
# NCI-H226 = system: NCI-H226
# SF-539 = system: SF-539
# DU-145 = system: DU-145
# COLO 205 = system: COLO 205
# SK-MEL-2 = system: SK-MEL-2
# OVCAR-4 = system: OVCAR-4
# 786-0 = system: 786-0
# RPMI-8226 = system: RPMI-8226
# OVCAR-3 = system: OVCAR-3
# MOLT-4 = system: MOLT-4
# HCC 2998 = system: HCC 2998
# SW-620 = system: SW-620
# SK-MEL-28 = system: SK-MEL-28
# UACC-62 = system: UACC-62
# M14 = system: M14
# HCT-116 = system: HCT-116
# OVCAR-5 = system: OVCAR-5
# U-251 = system: U-251
# RXF 393 = system: RXF 393
# NCI-H522 = system: NCI-H522
# NCI-H23 = system: NCI-H23
# HL-60 = system: HL-60
# CCRF-CEM = system: CCRF-CEM
# SR = system: SR
smiles,measurement,setting,value
CC(=N/NC(=S)N1CCCCC1)/C(=N\NC(=S)N1CCCCC1)c1ccccc1,GI50,SK-OV-3,1.95 µM (inactive)
same,GI50,KM12,1.97 µM (inactive)
same,GI50,T47D,2.12 µM (inactive)
same,GI50,BT-549,1.91 µM (inactive)
same,GI50,SN12C,1.82 µM (inactive)
same,GI50,SNB-19,1.87 µM (inactive)
same,GI50,EKVX,1.89 µM (inactive)
same,GI50,A498,1.3 µM (inactive)
same,GI50,TK-10,1.74 µM (inactive)
same,GI50,Hs-578T,1.84 µM (inactive)
same,GI50,MDA-MB-435,2.08 µM (inactive)
same,GI50,SK-MEL-5,1.96 µM (inactive)
same,GI50,K562,4.74 µM (inactive)
same,GI50,CAKI-1,2.04 µM (inactive)
same,GI50,HOP-92,1.9 µM (inactive)
same,GI50,MDA-N,2.61 µM (inactive)
same,GI50,UO-31,1.76 µM (inactive)
same,GI50,ACHN,1.6 µM (inactive)
same,GI50,IGROV-1,1.72 µM (inactive)
same,GI50,NCI-H460,1.91 µM (inactive)
same,GI50,HCT-15,2.1 µM
same,GI50,Malme-3M,2.13 µM (inactive)
same,GI50,A549,2.03 µM (inactive)
same,GI50,HT-29,2.1 µM (inactive)
same,GI50,UACC-257,1.95 µM (inactive)
same,GI50,LOX IMVI,3.43 µM (inactive)
same,GI50,MCF7,2.75 µM (inactive)
same,GI50,HOP-62,2.04 µM (inactive)
same,GI50,SNB-75,1.91 µM (inactive)
same,GI50,OVCAR-8,2.64 µM (inactive)
same,GI50,SF-295,1.87 µM (inactive)
same,GI50,SF-268,1.79 µM (inactive)
same,GI50,MDA-MB-231,2.7 µM (inactive)
same,GI50,PC-3,1.64 µM (inactive)
same,GI50,NCI/ADR-RES,2.65 µM (inactive)
same,GI50,NCI-H226,1.91 µM (inactive)
same,GI50,SF-539,2.67 µM (inactive)
same,GI50,DU-145,0.512 µM (active)
same,GI50,COLO 205,2.22 µM (inactive)
same,GI50,SK-MEL-2,2.11 µM (inactive)
same,GI50,OVCAR-4,1.85 µM (inactive)
same,GI50,786-0,1.99 µM (inactive)
same,GI50,RPMI-8226,3.36 µM (inactive)
same,GI50,OVCAR-3,1.65 µM (inactive)
same,GI50,MOLT-4,6.19 µM (inactive)
same,GI50,HCC 2998,2.3 µM (inactive)
same,GI50,SW-620,2.15 µM (inactive)
same,GI50,SK-MEL-28,2.09 µM (inactive)
same,GI50,UACC-62,1.77 µM (inactive)
same,GI50,M14,1.99 µM (inactive)
same,GI50,HCT-116,2.53 µM (inactive)
same,GI50,OVCAR-5,2 µM (inactive)
same,GI50,U-251,1.68 µM (inactive)
same,GI50,RXF 393,1.35 µM (inactive)
same,GI50,NCI-H522,2.23 µM (inactive)
same,GI50,NCI-H23,2.2 µM (inactive)
O=C1/C(=C/c2ccc([N+](=O)[O-])cc2)Sc2scc(-c3cccc([N+](=O)[O-])c3)[n+]21,GI50,SK-OV-3,15.9 µM (inactive)
same,GI50,KM12,10.8 µM (inactive)
same,GI50,T47D,3.35 µM (inactive)
same,GI50,BT-549,5.36 µM (inactive)
same,GI50,SN12C,4.1 µM (inactive)
same,GI50,SNB-19,14.8 µM (inactive)
same,GI50,EKVX,6.7 µM (inactive)
same,GI50,A498,3.13 µM (inactive)
same,GI50,TK-10,5.18 µM (inactive)
same,GI50,Hs-578T,8.81 µM (inactive)
same,GI50,MDA-MB-435,5.46 µM (inactive)
same,GI50,SK-MEL-5,5.86 µM (inactive)
same,GI50,K562,2.77 µM (inactive)
same,GI50,CAKI-1,2.8 µM (inactive)
same,GI50,HOP-92,3.66 µM (inactive)
same,GI50,MDA-N,4.35 µM (inactive)
same,GI50,UO-31,8.51 µM (inactive)
same,GI50,ACHN,3.97 µM (inactive)
same,GI50,IGROV-1,2.91 µM (inactive)
same,GI50,NCI-H460,8.99 µM (inactive)
same,GI50,HCT-15,2.26 µM
same,GI50,Malme-3M,1.33 µM (inactive)
same,GI50,A549,22.2 µM (inactive)
same,GI50,HL-60,0.331 µM (active)
same,GI50,HT-29,2.31 µM (inactive)
same,GI50,UACC-257,5.32 µM (inactive)
same,GI50,LOX IMVI,2.41 µM (inactive)
same,GI50,MCF7,4.09 µM (inactive)
same,GI50,HOP-62,15.5 µM (inactive)
same,GI50,SNB-75,10.6 µM (inactive)
same,GI50,OVCAR-8,6.11 µM (inactive)
same,GI50,SF-295,14.2 µM (inactive)
same,GI50,SF-268,2.15 µM (inactive)
same,GI50,MDA-MB-231,4.91 µM (inactive)
same,GI50,PC-3,12.5 µM (inactive)
same,GI50,NCI/ADR-RES,5.89 µM (inactive)
same,GI50,NCI-H226,11.5 µM (inactive)
same,GI50,SF-539,2.37 µM (inactive)
same,GI50,DU-145,10.6 µM (inactive)
same,GI50,COLO 205,1.85 µM (inactive)
same,GI50,SK-MEL-2,13.9 µM (inactive)
same,GI50,OVCAR-4,9.53 µM (inactive)
same,GI50,786-0,1.79 µM (inactive)
same,GI50,RPMI-8226,3.01 µM (inactive)
same,GI50,OVCAR-3,4.24 µM (inactive)
same,GI50,MOLT-4,1.99 µM (inactive)
same,GI50,HCC 2998,5.56 µM (inactive)
same,GI50,CCRF-CEM,0.364 µM (active)
same,GI50,SW-620,1.69 µM (inactive)
same,GI50,UACC-62,8.79 µM (inactive)
same,GI50,M14,3.78 µM (inactive)
same,GI50,HCT-116,4.6 µM (inactive)
same,GI50,OVCAR-5,8.89 µM (inactive)
same,GI50,U-251,10.7 µM (inactive)
same,GI50,RXF 393,2.35 µM (inactive)
same,GI50,NCI-H522,0.973 µM (active)
same,GI50,NCI-H23,7.93 µM (inactive)
COc1cccc(/C=N/C(/N=C/c2cccc(OC)c2O)c2cccc(OC)c2O)c1O,GI50,SK-OV-3,26 µM (inactive)
same,GI50,KM12,22.6 µM (inactive)
same,GI50,T47D,15.2 µM (inactive)
same,GI50,BT-549,19.6 µM (inactive)
same,GI50,SN12C,19.2 µM (inactive)
same,GI50,SNB-19,22.6 µM (inactive)
same,GI50,EKVX,19.2 µM (inactive)
same,GI50,TK-10,15.7 µM (inactive)
same,GI50,Hs-578T,17.6 µM (inactive)
same,GI50,MDA-MB-435,28.3 µM (inactive)
same,GI50,SK-MEL-5,15 µM (inactive)
same,GI50,K562,24.7 µM (inactive)
same,GI50,CAKI-1,19.6 µM (inactive)
same,GI50,HOP-92,31.7 µM (inactive)
same,GI50,MDA-N,26.4 µM (inactive)
same,GI50,UO-31,20.1 µM (inactive)
same,GI50,ACHN,21.5 µM (inactive)
same,GI50,IGROV-1,21.7 µM (inactive)
same,GI50,NCI-H460,21.7 µM (inactive)
same,GI50,HCT-15,7.5 µM
same,GI50,A549,26.7 µM (inactive)
same,GI50,HL-60,25.9 µM (inactive)
same,GI50,HT-29,24.4 µM (inactive)
same,GI50,UACC-257,23.1 µM (inactive)
same,GI50,LOX IMVI,10.5 µM (inactive)
same,GI50,MCF7,18.9 µM (inactive)
same,GI50,HOP-62,29.4 µM (inactive)
same,GI50,SNB-75,13.9 µM (inactive)
same,GI50,OVCAR-8,12.6 µM (inactive)
same,GI50,SF-295,23.6 µM (inactive)
same,GI50,SF-268,10.6 µM (inactive)
same,GI50,SR,6.38 µM (inactive)
same,GI50,MDA-MB-231,25.1 µM (inactive)
same,GI50,PC-3,26 µM (inactive)
same,GI50,NCI/ADR-RES,19.6 µM (inactive)
same,GI50,SF-539,20.1 µM (inactive)
same,GI50,DU-145,18.4 µM (inactive)
same,GI50,COLO 205,32.1 µM (inactive)
same,GI50,SK-MEL-2,14.8 µM (inactive)
same,GI50,786-0,23.3 µM (inactive)
same,GI50,RPMI-8226,22 µM (inactive)
same,GI50,OVCAR-3,11.7 µM (inactive)
same,GI50,HCC 2998,18.8 µM (inactive)
same,GI50,CCRF-CEM,7 µM (inactive)
same,GI50,SW-620,27.5 µM (inactive)
same,GI50,SK-MEL-28,18.7 µM (inactive)
same,GI50,UACC-62,24.2 µM (inactive)
same,GI50,M14,17.1 µM (inactive)
same,GI50,HCT-116,14.6 µM (inactive)
same,GI50,OVCAR-5,22 µM (inactive)
same,GI50,U-251,15.6 µM (inactive)
same,GI50,RXF 393,8.39 µM (inactive)
same,GI50,NCI-H522,21.8 µM (inactive)
same,GI50,NCI-H23,28.8 µM (inactive)
